Source: patent publication US7795220B2, “Conformationally constrained parathyroid hormones with alpha-helix stabilizers” (The General Hospital Corporation, priority 2003, dated 2010)
Non-standard residues stand in square brackets, D forms with d. Residues, ends and D or L forms follow the SMILES beside them. hArg = N=C(N)NCCCC[C@H](N)C(=O)O; Ac5c = NC1(C(=O)O)CCCC1; Aib = CC(C)(N)C(=O)O

Target: T1, hP1R-delNt (Homo sapiens, UniProt Q03431)
T1 construct: expressed in transfected cells
T1 sequence (Q03431 with tags, fused parts or gaps limits assumed): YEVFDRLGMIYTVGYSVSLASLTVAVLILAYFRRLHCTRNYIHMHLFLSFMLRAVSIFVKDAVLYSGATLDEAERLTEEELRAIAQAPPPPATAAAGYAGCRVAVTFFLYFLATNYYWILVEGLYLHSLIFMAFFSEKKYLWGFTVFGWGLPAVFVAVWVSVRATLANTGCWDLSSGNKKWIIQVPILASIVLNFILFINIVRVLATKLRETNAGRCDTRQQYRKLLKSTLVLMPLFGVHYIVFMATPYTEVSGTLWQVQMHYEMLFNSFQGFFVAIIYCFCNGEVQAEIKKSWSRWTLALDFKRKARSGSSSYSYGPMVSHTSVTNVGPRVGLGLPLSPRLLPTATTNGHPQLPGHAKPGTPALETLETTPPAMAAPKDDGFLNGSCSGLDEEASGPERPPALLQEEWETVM
Assay: cAMP stimulation in LdelNt-2 cells
Format: cell-based
Source text: Cell Culture. The cell line HKRK-B28 (Takasu, H., et al., J. Bone Miner. Res. 14:11-20 (1999)) was derived from the porcine kidney cell line, LLC-PK1 by stable transfection with plasmid DNA encoding a recombinant P1R chimera comprised of the opposum P1R from the N-terminus to the mid region of TM3 and the rat P1R from the mid region of TM3 to the C-terminus. The surface density of the P1R in these cells is ˜280,000 receptors per cell. The clonal cell line LdelNt-2 was derived from LLC-PK, cells via stable transfection with a plasmid encoding P1R-delNt, a recombinant human PTH-1 receptor construct in which most of the amino-terminal extracellular domain is deleted. These cells, as well as COS-7 cells and SaOS-2-B10 cells, were cultured at […] in T-75 flasks ([…]) in Dulbecco's modified Eagle's medium (DMEM) supplemented with fetal bovine serum (10%), penicillin G (20 units/ml), streptomycin sulfate (20 μg/ml) and amphotericin B (0.05 μg/ml) in a humidified atmosphere containing 5% CO2. Stock solutions of EGTA/trypsin and antibiotics were from GLBCO; fetal bovine serum was from Hyclone Laboratories (Logan, Utah). COS-7 cells sub-cultured in 24-well plates were transfected with plasmid DNA (200 ng per well) encoding the wild-type human P1R or truncated human P1R deleted for residues (24-181) (Shimizu, M., et al., J. Biol. Chem. 275:21836-21843 (2000)) that was purified by cesium chloride/ethidium bromide density gradient centrifugation, and FuGENE 6 transfection reagent (Roche Indianapolis Ind.) according to the manufacturer's recommended procedure. All cells, in 24-well plates, were treated with fresh media and shifted to 33° C. for 12 to 24 h prior to assay.
cAMP Stimulation. Stimulation of cells with peptide analogs was performed in 24-well plates. Cells were rinsed with 0.5 mL of binding buffer (50 mM Tris-HCl, 100 mM NaCl, 5 mM KCl, 2 mM CaCl2, 5% heat-inactivated horse serum, 0.5% fetal bovine serum, adjusted to pH 7.5 with HCl) and treated with 200 μL of cAMP assay buffer (Delbecco's modified Eagle's medium containing 2 mM 3-isobutyl-1-methylxanthine, 1 mg/mL bovine serum albumin, 35 mM Hepes-NaOH, pH 7.4) and 100 μL of binding buffer containing varying amounts of peptide analog (final volume=300 μL). The medium was removed after incubation for 30 to 60 minutes at room temperature, and the cells were frozen on dry ice, lysed with 0.5 mL 50 mM HCl, and refrozen ([…]). The cAMP content of the diluted lysate was determined by radioimmunoassay. The EC50 response values were calculated using nonlinear regression (see below).
Data Calculation. Calculations were performed using Microsoft® Excel. Nonlinear regression analyses of binding and cAMP dose-response data were performed using the four-parameter equation: yp=Min+[(Max−Min)/(1+(IC50/x)^slope)]. The Excel Solver function was utilized for parameter optimization, as described previously (Carter, P. H., et al., Endocrinology 140: 4972-4981 (1999); Bowen, W. P., and Jerman, J. C., Trends in Pharmacol. Sci. 16: 413-417 (1995)). Differences between paired data sets were statistically evaluated using a one-tailed Student's t-test, assuming unequal variances for the two sets.
Agonist activities of selected analogs in cells expressing P1R-delNt were examined. This PTH-1 receptor construct lacks most of the N domain, but nevertheless mediates full agonist responses to N-terminally modified PTH analogs, and thus enables the relative roles of the receptor's N and J domains to the ligand interaction process to be evaluated. The clonal cell line LdelNT-2 was used, which was derived from LLC-PK, cells by stable transfection with a plasmid encoding the human P1R-delNt construct.

CC[C@H](C)[C@H](NC(=O)[C@H](CCC(=O)O)NC(=O)C(C)(C)NC(=O)[C@@H](NC(=O)C1(N)CCCC1)C(C)C)C(=O)N[C@@H](CCC(N)=O)C(=O)N[C@@H](CC(C)C)C(=O)N[C@@H](CCSC)C(=O)N[C@@H](Cc1c[nH]cn1)C(=O)N[C@@H](CCC(N)=O)C(=O)N[C@@H](CCCCNC(=N)N)C(=O)N[C@@H](C)C(=O)N[C@@H](CCCCN)C(=O)N[C@@H](Cc1c[nH]c2ccccc12)C(N)=O [[Ac5c^1,Aib^3,M]PTH(1-14), [Ac5c^1,Aib^3,Gln^10,Har^11,Ala^12,Trp^14]PTH(1-14)NH2] (H-[Ac5c]V[Aib]EIQLMHQ[hArg]AKW-NH2)
EC50: 6.4 ± 2.3 nM | increase in cAMP accumulation (Emax) over basal: 70 fold | maximum cAMP response: 125±19 picomoles of cAMP per well
